Results on 14 compounds are retold here after patent US20230000774A1, “METHODS AND COMPOSITIONS PRODUCED THEREBY” (Albumedix Limited, priority 2019, published 2023).

For series [1] the following is noted: cited from earlier work; for Water Solubility: obtained from DrugBank, rimiducid value provided by Bellicum Pharmaceuticals (estimated); for Solubility in water (literature): unformulated API.
The nature of the next series: physchem. The following applies: organic solvent or mixture, thermodynamic from solid. As for the experimental part: The solubility of nine poorly soluble APIs in ethanol was investigated; Acyclovir, Aripiprazole, Bifonazole, Etravirine, Ezetimibe, Glibenclamide. […] For each API, approximately 20 mg was weighed into a scintillation vial. 3 mL of ethanol was added to each vial. Samples were vortexed until completely dissolved. If after 2 mins the sample was not dissolved, a further 3 mL of ethanol was added, and the sample was vortexed again. After another 2 mins, if the sample was still not dissolved, the API in question was classed as insoluble.
To quickly assess the APIs applicability to this method, the solubility of each API in ethanol was tested.

For series [2] the following is noted: obtained from DrugBank; total charge at pH 7.4; cited from earlier work.
The nature of series [3]: Drug solubility testing of AP1903 in ethanol and methanol. Format: physicochemical. As for the experimental part: Drug solubility testing was undertaken to ascertain the highest concentration of drug solution that could be used for the preparation of the feed solution. […] Both were tested and found to perform similarly, with ˜40 mg of AP1903 dissolving into 1 mLl of solvent.

Series [4] in a line: Solubility of APIs in ethanol water mixtures. Format: physicochemical. The following applies: ethanolic solution added to 50:50 EtOH:H2O. As for the experimental part:
APIs were dissolved in ethanol at the desired concentration (Tables 16 and 17). The required volume of this solution was added to a 50:50 solution of ethanol:HPLC grade water with stirring (Table 17).
To prepare the spray drying feed solution the API should preferably be soluble in 40:60 (v/v) ethanol/water mixtures. Any API that precipitated on addition of the ethanolic solution (from the previous section) to a 50:50 solution of EtOH:H2O was eliminated from the study.

The nature of another series: DMSO solubility testing. The class given is physicochemical. Here is the method: 1 mL of DMSO was added to a scintillation vial containing approximately 20 mg of Ezetimibe. The sample readily dissolved with gentle mixing.
A solution preparation method that utilised an alternative solvent was investigated. The alternative solvent needed to be similar to ethanol in its ability to dissolve the APIs whilst being miscible with water. Dimethyl sulfoxide (DMSO) was chosen as a promising candidate. Ezetimibe was chosen as a suitable API owing to its favourable COSHH assessment combined with the knowledge of DMSO as a transport agent. The solubility of Ezetimibe in DSMO was assessed by dissolving approx. 20 mg of API in 1 mL of solvent. […] The next step was to assess the API solubility in a mixture of DMSO and water.

The nature of series [5]: Solubility of APIs in D5W solution. Format: physicochemical. The following applies: saline or isotonic, thermodynamic from solid. Here is the method:
The solution was sampled after centrifugation (13.5 k rpm for 5 minutes) and the solubility of the APIs was determined by HPLC analysis of the saturated solution.
Analysis was performed on an Agilent 1200 series HPLC employing a Waters, Xbridge Peptide BEH C18 column (150×4.6 mm i.d., 3.5 μm). […] Bifonazole was analysed using a 1 mL/min flow rate of 65:35 HPLC methanol:ammonium acetate (5 g/L, pH 2) with UV detection at 252 nm.

A short description of series [6]: Dissolution of curcumin in water and after spray drying with rHA. The following applies: unformulated. The class given is physicochemical.
Setting [7] is: D5W solution, unformulated API, saturated solution, read-out: Solubility in D5W solution.

≈ marks a conversion by molar mass, not a printed value. Where two headings read alike, the source gives them in different places.

As to `CO[C@H]1C[C@@H]2CC[C@@H](C)[C@@](O)(O2)C(=O)C(=O)N2CCCC[C@H]2C(=O)O[C@H]([C@H](C)C[C@@H]2CC[C@@H](O)[C@H](OC)C2)CC(=O)[C@H](C)/C=C(\C)[C@@H](O)[C@@H](OC)C(=O)[C@H](C)C[C@H](C)/C=C/C=C/C=C/1C` [Rapamycin (sirolimus), Rapamycin], the “Water Solubility” value in series [1] was 1.73 µg/mL.
As for `Nc1nc2c(ncn2COCCO)c(=O)[nH]1` [Acyclovir], in “physchem” (Soluble (>[…]) in EtOH?), the solubility – broadly, how much of the substance goes into solution per volume – was below 1200 µg/mL.
`CC(C)c1nc(CN(C)C(=O)N[C@H](C(=O)N[C@@H](Cc2ccccc2)C[C@H](O)[C@H](Cc2ccccc2)NC(=O)OCc2cncs2)C(C)C)cs1` [Ritonavir]: the “Physiological Charge” value in series [2] is 0.
Turning to `CC[C@H](C(=O)N1CCCC[C@H]1C(=O)O[C@H](CCc1ccc(OC)c(OC)c1)c1cccc(OCC(=O)NCCNC(=O)COc2cccc([C@@H](CCc3ccc(OC)c(OC)c3)OC(=O)[C@@H]3CCCCN3C(=O)[C@@H](CC)c3cc(OC)c(OC)c(OC)c3)c2)c1)c1cc(OC)c(OC)c(OC)c1` [AP1903, 1,2-Ethanediylbis[imino(2-oxo-2,1-ethanediyl)oxy-3,1-phenylene(1R)-3-(3,4-dimethoxyphen-yl)-1,1-propanediyl] (2S,2'S)bis{1-[(2S)-2-(3,4,5-trimethoxyphenyl)butanoyl]-2-piperidine-carboxylate}], in series [3] (dissolving into 1 mL of ethanol), the “amount of AP1903 dissolving in ethanol” value was around 40 mg. Further, the “amount of AP1903 dissolving in methanol” value in series [3] (dissolving into 1 mL of methanol) is listed as around 40 mg. Also, the “Physiological Charge” value in series [2] was 0. Besides, the “Water Solubility” value was “approximately 0.000001 mg/mL” in series [1] and 0.001 µg/mL in series [1] (listed as Rimiducid (AP1903)). The “water solubility (estimated)” value in series [1] (provided by Bellicum Pharmaceuticals) is 0.7 nM (≈ 0.988 ng/mL).
Turning to `O=C1CCc2ccc(OCCCCN3CCN(c4cccc(Cl)c4Cl)CC3)cc2N1` [Aripiprazole], the “Soluble in EtOH/H2O mixture” value in series [4] is reported as “No”. The solubility in “physchem” (Soluble (>[…]) in EtOH?) is above 1200 µg/mL; in the series “physchem” (approximate concentration in ethanol at which completely solubilised), around 2200 µg/mL (≈ 4910 µM).
In the case of `O=C1[C@H](CC[C@H](O)c2ccc(F)cc2)[C@@H](c2ccc(O)cc2)N1c1ccc(F)cc1` [Ezetimibe], the “solubility in a mixture of DMSO and water” value in the series “DMSO solubility testing” (addition to a 50:50 DMSO:water mixture) was “remained in solution”. In “DMSO solubility testing” (approx. 20 mg of API in 1 mL of DMSO), the “solubility in DMSO” value is “dissolved readily with gentle agitation”. For the same compound, in series [4], the “Soluble in EtOH/H2O mixture” value is on record as “Yes”. Besides, the solubility at 2 min in series [5] (setting [7]) stood at 3.4 µg/mL (≈ 8.3 µM). The “Physiological Charge” value in series [2] is 0. Also, the solubility in the series “physchem” (Soluble (>[…]) in EtOH?) is above 1200 µg/mL. In series [1], the “Water Solubility” value was 8.46 µg/mL and the “Solubility in water (literature)” value was 8.5 µg/mL (≈ 20.8 µM).
For `c1ccc(-c2ccc(C(c3ccccc3)n3ccnc3)cc2)cc1` (stereo not drawn) [Bifonazole], in series [4], the “Soluble in EtOH/H2O mixture” value is on record as “Yes”. Besides, in series [5], the solubility at 2 min stood at 3.5 µg/mL (≈ 11.3 µM). In series [2], the “Physiological Charge” value is 0. The solubility in “physchem” (Soluble (>[…]) in EtOH?) is above 1200 µg/mL. In series [1], the “Water Solubility” value is 2.45 µg/mL and the “Solubility in water (literature)” value was 2.5 µg/mL (≈ 8.05 µM).
For the compound `O=C1NC(=O)C(c2ccccc2)(c2ccccc2)N1` [Phenytoin], in series [4], the “Soluble in EtOH/H2O mixture” value is listed as “Yes”. The solubility at 2 min in series [5] (setting [7]) turned out to be 14.1 µg/mL (≈ 55.9 µM). For the same compound, the “Physiological Charge” value in series [2] was 0. Further, the solubility in “physchem” (Soluble (>[…]) in EtOH?) is above 1200 µg/mL. In addition, in series [1], the “Water Solubility” value was 71.1 µg/mL and the “Solubility in water (literature)” value was 71.1 µg/mL (≈ 282 µM).
For the compound `Cc1cc(C#N)cc(C)c1Oc1nc(Nc2ccc(C#N)cc2)nc(N)c1Br` [Etravirine], the “Physiological Charge” value in series [2] is listed as 0. In “physchem” (Soluble (>[…]) in EtOH?), the solubility is below 1200 µg/mL. In addition, the “Water Solubility” value in series [1] is 16.9 µg/mL.
`COc1ccc(Cl)cc1C(=O)NCCc1ccc(S(=O)(=O)NC(=O)NC2CCCCC2)cc1` [Glibenclamide]: the solubility in “physchem” (Soluble (>[…]) in EtOH?) was below 1200 µg/mL.
Regarding `Cc1cccc(C)c1OCC(=O)N[C@@H](Cc1ccccc1)[C@@H](O)C[C@H](Cc1ccccc1)NC(=O)[C@H](C(C)C)N1CCCNC1=O` [Lopinavir], the “Soluble in EtOH/H2O mixture” value in series [4] is listed as “Yes”. For the same compound, the solubility at 2 min in series [5] was 14.9 µg/mL (≈ 23.7 µM). Further, the solubility in the series “physchem” (Soluble (>[…]) in EtOH?) is above 1200 µg/mL. In addition, in series [1], the “Water Solubility” value was 1.92 µg/mL and the “Solubility in water (literature)” value was 1.9 µg/mL (≈ 3.02 µM).
For the compound `C=CC[C@@H]1/C=C(\C)C[C@H](C)C[C@H](OC)[C@H]2O[C@@](O)(C(=O)C(=O)N3CCCC[C@H]3C(=O)O[C@H](/C(C)=C/[C@@H]3CC[C@@H](O)[C@H](OC)C3)[C@H](C)[C@@H](O)CC1=O)[C@H](C)C[C@@H]2OC` [Tacrolimus], the “Physiological Charge” value in series [2] was 0. Also, in series [1], the “Water Solubility” value is 4.02 µg/mL.
With `C#C[C@]1(O)CC[C@H]2[C@@H]3CCC4=Cc5oncc5C[C@]4(C)[C@H]3CC[C@@]21C` [Danazol], in series [2], the “Physiological Charge” value was 0.
Take `COc1cc(/C=C/C(=O)CC(=O)/C=C/c2ccc(O)c(OC)c2)ccc1O` [Curcumin]: the Water Solubility result in series [6] was “poorly water soluble”.
